Test results: ChEMBL document CHEMBL1129530, “Novel alpha-amino-3-hydroxy-5-methylisoxazole-4-propionate receptor antagonists: synthesis and structure-activity relationships of 6-(1H-imidazol-1-yl)-7-nitro-2,3(1H,4H)-pyrido[2,3-b]pyrazinedione and related compounds” (J Med Chem, 1996)

Assays:
Format in all cases: cell membranes
[1] = target: Glutamate receptor ionotropic, AMPA (Rattus norvegicus) (UniProt P19491+P19492+P19493+P19490); assay: Inhibition [3H]AMPA binding to ionotropic glutamate receptor AMPA in rat whole brain membranes in the presence of […] KSCN
[2] = target: Glutamate receptor ionotropic, NMDA 1 (Rattus norvegicus, UniProt P35439); assay: (§1) In vitro inhibition of the specific binding of [3H]Gly to N-methyl-D-aspartate glutamate receptor 1 in rat whole brain membranes except cerebellum
[3] = target: Glutamate receptor ionotropic, AMPA (Rattus norvegicus, UniProt P19490+P19491+P19492+P19493); assay: In vitro inhibition of the specific binding of [3H]AMPA to Ionotropic glutamate receptor AMPA in rat whole brain membranes in the presence of […] KSCN
[4] = target: Glutamate receptor ionotropic, NMDA 1 (Rattus norvegicus) (UniProt P35439); assay: as §1; settings: concentration not given here

| SMILES | inhibition [1] [%] | further results |
| --- | --- | --- |
| CS(=O)(=O)c1ccc2nc(O)c(O)nc2n1 | 56 | – |
| Oc1nc2cccnc2nc1O | 22 | – |
| Oc1nc2ccc(N3CCOCC3)nc2nc1O | 32 | – |
| CSc1ccc2nc(O)c(O)nc2n1 | 55 | – |
| COc1ccc2nc(O)c(O)nc2n1 | 41 | – |
| O=[N+]([O-])c1ccc2nc(O)c(O)nc2n1 | 66 | – |
| O=[N+]([O-])c1cc2nc(O)c(O)nc2nc1[N+](=O)[O-] | – | Ki [2]: 8000 nM; Ki [3]: 860 nM |
| O=[N+]([O-])c1cnc2nc(O)c(O)nc2c1 | – | Ki [3]: 1100 nM |
| Oc1nc2ccc(-n3ccnc3)nc2nc1O | 76 | – |
| COc1nc2[nH]c(=O)c(=O)[nH]c2cc1[N+](=O)[O-] | – | Ki [2]: 370 nM; Ki [3]: 700 nM |
| Oc1nc2ccncc2nc1O | 32 | – |
| O=[N+]([O-])c1cc2nc(O)c(O)nc2nc1N1CCOCC1 | – | Ki [3]: 920 nM; inhibition [4]: 14% |
| Oc1nc2cncnc2nc1O | 62 | – |
| O=c1[nH]c2cc(-n3ccnc3)c([N+](=O)[O-])cc2[nH]c1=O | – | inhibition [4]: 16% |
| Cc1ccc2nc(O)c(O)nc2n1 | 31 | – |
| Cc1cnc2nc(O)c(O)nc2c1 | 74 | – |
| CNc1ccc2nc(O)c(O)nc2n1 | 30 | – |
| Oc1ccc2nc(O)c(O)nc2n1 | 37 | – |
| O=[N+]([O-])c1cc2nc(O)c(O)nc2nc1-n1ccnc1 | – | Ki [3]: 140 nM; inhibition [4]: 0% |
| Oc1nc2ccc(Cl)nc2nc1O | 29 | – |
